Each structure is given as a SMILES string.

For the molecule `*/C=C(\C#N)C(=O)OCCCCCCOC(=O)/C(C#N)=C/c1ccc2c(c1)c1cc(*)ccc1n2CCCCCCCCCCCOc1ccc(/C=C/c2ccc([N+](=O)[O-])cc2)cc1` (repeat unit), the glass transition temperature is 87.00 °C.

Regarding `*/C=C/c1cc(CCCCCCCCCCCCCCCC)c(/C=C/c2nc(*)c(C#N)c(/C=C/c3ccc(N(c4ccccc4)c4ccccc4)cc3)c2C#N)cc1CCCCCCCCCCCCCCCC` (repeat unit), the glass transition temperature was 165.00 °C.

The molecule `*/C=C/c1ccc(*)c(-c2ccc(OCC(CC)CCCC)c3ccccc23)c1` (repeat unit) had a glass transition temperature of 135.00 °C.

Consider `*/C=C/c1ccc(*)c(OCc2cc(OCc3cc(OCCC(C)CCCC(C)C)cc(OCCC(C)CCCC(C)C)c3)cc(OCc3cc(OCC(CC)CCCC)cc(OCC(CC)CCCC)c3)c2)c1` (repeat unit), for which the glass transition temperature was determined as 223.00 °C.

As for `*/C=C/c1ccc2c(c1)C(CC(CC)CCCC)(CC(CC)CCCC)c1cc(*)ccc1-2` (repeat unit), the glass transition temperature came to 165.00 °C.

On to `*/C=C/c1ccc2c(c1)C(CCCCCC)(CCCCCC)c1cc(/C=C/c3nc(*)c(C#N)c(/C=C/c4ccc(N(c5ccccc5)c5ccccc5)cc4)c3C#N)ccc1-2` (repeat unit), for which the glass transition temperature was 178.00 °C.

In turn, `*/C=C/c1ccc2c(c1)Sc1cc(*)ccc1N2c1ccc(OCCCCCCCCCCCC)cc1` (repeat unit) had a glass transition temperature of 129.00 °C.

On to `*/C=C/c1ccc2c3ccc(*)cc3n(-c3ccc(OCCCCCCCCCC)c(OCCCCCCCCCC)c3)c2c1` (repeat unit), for which the glass transition temperature came to 95.00 °C.

For the molecule `*/C=C/c1cccc(/C=C/[Si](C)(C)c2cccc([Si](*)(C)C)c2)c1` (repeat unit), the glass transition temperature is 28.70 °C.

In turn, `*/C=C/c1cccc(/C=C/[Si](C)(CCC(F)(F)F)c2ccc([Si](*)(C)CCC(F)(F)F)cc2)c1` (repeat unit) displayed a glass transition temperature of 34.50 °C.

Consider `*/C=C/c1cccc(/C=C/[Si](C)(CCC(F)(F)F)c2cccc([Si](*)(C)CCC(F)(F)F)c2)c1` (repeat unit), for which the glass transition temperature was found to be 9.50 °C.

For `*/C=N/c1ccc(C(=O)OCCCCOCCCCOCCCCOC(=O)c2ccc(/N=C/c3ccc4c(c3)c3cc(*)ccc3n4CC(CC)CCCC)cc2)cc1` (repeat unit), the glass transition temperature came out at 5.20 °C.

In turn, `*C#Cc1cccc(C#C[SiH2]*)c1` (repeat unit) came in with a glass transition temperature of 72.00 °C.

`*C(=O)Nc1cccc(NC(=O)/C=C/c2cccc(N3C(=O)c4ccc(*)cc4C3=O)c2)c1` (repeat unit): the glass transition temperature came out at 257.50 °C.

As for `*CC(=O)C(*)C` (repeat unit), the glass transition temperature was determined as 23.00 °C.

In turn, `*CC(=O)C(*)c1ccc(C(C)(C)C)cc1` (repeat unit) yielded a glass transition temperature of 158.00 °C.

In the case of `*CC(C)(C)C1C(=O)N(c2c(C)cccc2C)C(=O)C1*` (repeat unit), the glass transition temperature came to 237.00 °C.

On to `*CC(C)(C)C1C(=O)N(c2ccccc2C)C(=O)C1*` (repeat unit), for which the glass transition temperature was 207.00 °C.

`*CC(CC(C)C)S(*)(=O)=O` (repeat unit) yielded a glass transition temperature of 23.00 °C.

Consider `*CC(CC(Cl)(Cl)Cl)O*` (repeat unit), for which the glass transition temperature was -36.00 °C.

With `*CC(CC)N(*)C(=O)CCCC` (repeat unit), the glass transition temperature was 52.00 °C.

As for `*CC(CC)O*` (repeat unit), the glass transition temperature was -71.50 °C.

`*CC(CC)S*` (repeat unit) returned a glass transition temperature of -47.00 °C.

For `*CC(CCCCCC)O*` (repeat unit), the glass transition temperature was -67.00 °C.

In the case of `*CC(COC(=O)CCCCCCCCCCN1C(=O)C2C3C=CC(C3)C2C1=O)O*` (repeat unit), the glass transition temperature was -31.00 °C.

For `*CC(COC(F)(C(F)(F)F)C(F)(F)F)O*` (repeat unit), the glass transition temperature was -43.00 °C.

In turn, `*CC(COCC)O*` (repeat unit) yielded a glass transition temperature of -61.00 °C.

As to `*CC(COCCCC)O*` (repeat unit), the glass transition temperature was -79.00 °C.

`*CC(COc1ccc(-c2ccc(C#N)cc2)cc1)O*` (repeat unit) displayed a glass transition temperature of 94.2 °C.

`*CC(F)(F)CC(*)(C(F)(F)F)C(F)(F)F` (repeat unit) had a glass transition temperature of 132.00 °C.

In the case of `*CC(OCCCC)C(C(=O)OC)C(*)C(=O)OC` (repeat unit), the glass transition temperature was found to be 32.50 °C.

For the molecule `*CC(OCCCC)C(C)(C(=O)OC)C(*)(C)C(=O)OC` (repeat unit), the glass transition temperature came to 97.50 °C.

Regarding `*CCCC1(C)CCN(C(=O)CC(C)C(=O)N2CCC(*)(C)CC2)CC1` (repeat unit), the glass transition temperature was found to be 72.00 °C.

For `*CCCCCCCCCCn1c2ccccc2c2cc(/C=C(\C#N)C(=O)OCCCCCCOC(=O)/C(C#N)=C/c3ccc4c(c3)c3ccccc3n4*)ccc21` (repeat unit), the glass transition temperature is 94.50 °C.

The molecule `*CCCCCCCCOc1c(OC)cc(/C=C/c2ccc(/C=C/c3ccc(/C=C/c4cc(OC)c(O*)c(OC)c4)cc3)cc2)cc1OC` (repeat unit) returned a glass transition temperature of 78.70 °C.

`*CCCCCCCCOc1ccc(/C=C/c2cc(OCCCCCCCC)c(/C=C/c3ccc(O*)cc3)cc2OCCCCCCCC)cc1` (repeat unit): the glass transition temperature is 130.00 °C.

Molecule `*CCCCCCNC(=O)C(CC)CC(CC)C(=O)N*` (repeat unit) registered a glass transition temperature of 94.00 °C.

As for `*CCCCCNC(=O)CC(=O)N*` (repeat unit), the glass transition temperature was found to be 65.00 °C.

Molecule `*CCCCNC(=O)CC(=O)N*` (repeat unit) displayed a glass transition temperature of 73.00 °C.

`*CCOCCOC(=O)CC(=O)O*` (repeat unit) came in with a glass transition temperature of -41.50 °C.

Molecule `*CCOCCOCCOc1ccc(/C=C/c2cc(OC)c(/C=C/c3ccc(O*)c4ccccc34)cc2OC)c2ccccc12` (repeat unit) came in with a glass transition temperature of 79.50 °C.

Take `*Nc1ccc(-c2ccc(NC(=O)Cc3cc(C)c(CC(*)=O)cc3C)cc2)cc1` (repeat unit): the glass transition temperature amounted to 171.00 °C.

Turning to `*Nc1ccc(NC(=O)Cc2cc(CC(*)=O)c(C)cc2C)cc1` (repeat unit), the glass transition temperature is 208.00 °C.

As for `*Nc1cccc(NC(=O)Cc2cc(C)c(CC(*)=O)cc2C)c1` (repeat unit), the glass transition temperature worked out at 249.00 °C.

Take `*OC(CC(*)=O)C(C)(Cl)Cl` (repeat unit): the glass transition temperature is 109.00 °C.

For the molecule `*OC(CC)CC(*)=O` (repeat unit), the glass transition temperature is -15.40 °C.

Regarding `*OC(CCOc1ccccc1)CC(*)=O` (repeat unit), the glass transition temperature came out at 20.00 °C.

On to `*Oc1ccc(S(=O)(=O)c2ccc(Oc3ccc(/C=C4\CC/C(=C\c5ccc(*)cc5)C4=O)cc3)cc2)cc1` (repeat unit), for which the glass transition temperature stood at 235.00 °C.

Molecule `*c1cc(C)c(/N=C/c2ccc(OCc3ccccc3COc3ccc(/C=N/c4cc(C)c(N5C(=O)c6ccc7c8ccc9c%10c(ccc(c%11ccc(c6c7%11)C5=O)c%108)C(=O)N(*)C9=O)cc4C)cc3OC)c(OC)c2)cc1C` (repeat unit) registered a glass transition temperature of 143.00 °C.

As for `*c1ccc(Oc2ccc(/C=C/c3ccc(Oc4ccc(-c5nnc(*)o5)cc4)c4ccccc34)cc2)cc1` (repeat unit), the glass transition temperature came to 213.00 °C.

Values taken from the PolyMetriX glass transition set.
